From US12599583B2, “Small molecule GRB2 stabilizers for Ras map kinase inhibition” (Board of Regents, The University of Texas System, priority 2019, dated 2026)

Target: T1, GRB2 (Homo sapiens, UniProt P62993)
Assay: GRB001 binding to GRB2 by MST
Conditions: read-out: Kd, in vitro binding to GRB2 by MST
Protocol: In vitro binding of GRB001 to GRB2 with 50 μM Kd.

T1 sequence (P62993 whole entry): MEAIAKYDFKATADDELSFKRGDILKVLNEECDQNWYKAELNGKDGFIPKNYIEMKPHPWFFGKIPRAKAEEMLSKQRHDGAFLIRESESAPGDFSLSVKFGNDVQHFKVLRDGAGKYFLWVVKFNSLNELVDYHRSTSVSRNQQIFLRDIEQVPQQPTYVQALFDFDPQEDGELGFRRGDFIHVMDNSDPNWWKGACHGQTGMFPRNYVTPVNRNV

Compound	Kd
O=C1Cc2cc(NC(=O)Nc3ccc(F)cc3)ccc2N1 [GRB001]	50 µM

Tested on: OVCAR5 cells
Assay: nuclear fragmentation of OVCAR5 cells, high-throughput assay
Type: cell-based
Conditions: 500 nM compound
From the text: The intensity of the red color represents nuclear condensation indicative of apoptotic cells.

Compound	nuclear fragmentation of OVCAR5 cells
O=C1Cc2cc(NC(=O)Nc3ccc(Cl)c(Cl)c3)ccc2N1 [GRB002]	inducing nuclear fragmentation

Same assay, conditions: OVCAR5 cells

Compound	quantitation of fragmented nucleus among Series-1 GRB001 analogues
O=C1Cc2cc(NC(=O)Nc3ccc(Cl)c(Cl)c3)ccc2N1 [GRB002]	highest level of fragmented nucleus
O=C1Cc2cc(NC(=O)Nc3ccc4c(c3)OCO4)ccc2N1 [GRB005]	highest level of fragmented nucleus

Tested on: OVCAR8 cells
Assay: EGF induced ERK activation in OVCAR8 cells
Type: cell-based
Conditions: not given

Compound	inhibition of EGF induced ERK activation
O=C1Cc2cc(NC(=O)Nc3ccc(F)cc3)ccc2N1 [GRB001]	inhibition of EGF induced ERK activation

Tested on: not listed separately
Assay: Sulforhodamine B (SRB) cytotoxicity in HEK293T cells
Type: cell-based
Conditions: human
Protocol: (§1) Titrating concentrations of each compounds were used to treat cells for 72 hours. The data was normalized against 100% survival at the lowest inhibitor concentration. Graphs for IC50 were fitted to the four-parameter logistic equation using Prism8. Error bars show the percent coefficient of variation. Equivalent concentrations of DMSO were used as a negative control.
(§2) SRB cytotoxicity analysis was also performed using GRB152 in HEK293T and MDA-MB-231 cells. Cells were exposed to various concentrations of compound for 72 h before viability measurements.

Compound	IC50 at 72 h
O=c1[nH]c2ccc(NC(=S)Nc3ccc(Cl)c(Cl)c3)cc2o1 [GRB152]	1.5 ± 0.5 µM
COc1ccc(Cl)cc1NC(=O)Nc1ccc2[nH]c(=O)oc2c1 [GRB161]	> 120 µM

Tested on: MDA-MB-231 triple negative breast cancer cells with G13D k-Ras mutation
Assay: EGF induced MAPK activation in MDA-MB-231 cells
Type: cell-based
Conditions: not given

Compound	inhibition of EGF induced MAPK activation
O=C1Cc2cc(NC(=O)Nc3ccc(F)cc3)ccc2N1 [GRB001]	inhibits RTK induced Ras signaling

Tested on: RTK induced Ras signaling
Assay: EGF and FGF induced MAPK activation in multiple cancer cell-lines
Type: cell-based
Conditions: not given
From the text: GRB001 inhibits RAS/ERK activation while EGFR is fully active (FIG. 6D, top panel and the corresponding active EGFR in bottom panel)

Compound	inhibition of EGF and FGF induced MAPK activation
O=C1Cc2cc(NC(=O)Nc3ccc(F)cc3)ccc2N1 [GRB001]	inhibits EGF and FGF induced MAPK activation

Target: T1, GRB2
Assay: fluorescence anisotropy assay measuring GRB2 dimerization
Type: biochemical
Conditions: 100 nM Atto488 labeled GRB2; NB = No Binding (inability to induce GRB2 dimerization); read-out: EC50 anisotropy, compound induced GRB2 dimerization
Protocol: FIGS. 16A & 16B show fluorescence anisotropy assay data measuring GRB2 dimerization. 100 nM Atto488 labeled GRB2, which is below its dimer forming concentration, was used to identify compounds that induce dimerization. […] Note that NB represent compounds inability to induce GRB2 dimerization.
GRB2 dimerization was measured by fluorescence anisotropy assay. 100 nM Atto488 labeled GRB2, which is below its dimer forming concentration, was used to identify compounds that induce dimerization. […] Note that NB represent compounds inability to induce GRB2 dimerization.

Compound	EC50
O=C1Cc2cc(NC(=O)Nc3ccc(F)cc3)ccc2N1 [GRB001]	49.7 µM
O=C1Cc2cc(NC(=O)Nc3cccs3)ccc2N1 [GRB003]	9.7 µM
O=C1Cc2cc(NC(=O)Nc3cccc(Cl)c3)ccc2N1 [GRB004]	26 µM
CN1C(=O)Cc2cc(NC(=O)Nc3ccc(F)cc3)ccc21 [GRB006]	2.7 µM
COc1cccc(NC(=O)Nc2ccc3c(c2)CC(=O)N3C)c1 [GRB007]	15.7 µM
CCN1C(=O)Cc2cc(NC(=O)Nc3ccc(Cl)c(Cl)c3)ccc21 [GRB009]	5.5 µM
CCN1C(=O)Cc2cc(NC(=O)Nc3ccc(Cl)cc3)ccc21 [GRB010]	3.9 µM
COc1ccccc1NC(=O)Nc1ccc2c(c1)CC(=O)N2 [GRB012]	4.5 µM
Cc1cc(Br)ccc1NC(=O)Nc1ccc2[nH]c(=O)[nH]c2c1 [GRB020]	0.75 µM
Cc1ccc(NC(=O)Nc2ccc3[nH]c(=O)[nH]c3c2)cc1 [GRB021]	1 µM
O=C(Nc1ccc(Cl)c(Cl)c1)Nc1ccc2[nH]c(=O)[nH]c2c1 [GRB022]	2.1 µM
O=C(Nc1cccc(F)c1)Nc1ccc2[nH]c(=O)[nH]c2c1 [GRB023]	3.1 µM
O=C(Nc1cc(F)cc(F)c1)Nc1ccc2[nH]c(=O)[nH]c2c1 [GRB024]	4.6 µM
N#Cc1cccc(NC(=O)Nc2ccc3[nH]c(=O)[nH]c3c2)c1 [GRB025]	6 µM
Cc1ccc(NC(=O)Nc2ccc3[nH]c(=O)[nH]c3c2)c(C)c1 [GRB026]	8.2 µM
CCOC(=O)CNC(=O)Nc1ccc2[nH]c(=O)[nH]c2c1 [GRB027]	10.1 µM
O=C(Nc1cc(Cl)cc(Cl)c1)Nc1ccc2[nH]c(=O)[nH]c2c1 [GRB028]	10.2 µM
Cc1ccc(NC(=O)Nc2ccc3[nH]c(=O)[nH]c3c2)c(C)c1 [GRB029]	16.3 µM
Cc1cccc(NC(=O)Nc2ccc3[nH]c(=O)[nH]c3c2)c1C [GRB030]	37.3 µM
O=C(Nc1ccc(F)c(Cl)c1)Nc1ccc2[nH]c(=O)[nH]c2c1 [GRB031]	40.3 µM
COc1cc(NC(=O)Nc2ccc3[nH]c(=O)[nH]c3c2)cc(OC)c1OC [GRB032]	> 100 µM

Compound	EC50
COC(=O)c1cccc(NC(=O)Nc2ccc3[nH]c(=O)[nH]c3c2)c1 [GRB033]	> 100 µM
COc1cccc(NC(=O)Nc2ccc3[nH]c(=O)[nH]c3c2)c1 [GRB034]	264 µM
O=C(Nc1cccc(C(F)(F)F)c1)Nc1ccc2[nH]c(=O)[nH]c2c1 [GRB046]	2 µM
O=C(Nc1ccc(F)cc1)Nc1ccc2[nH]c(=O)[nH]c2c1 [GRB047]	9.7 µM
O=c1[nH]c2ccc(NC(=S)Nc3ccc(Cl)c(Cl)c3)cc2[nH]1 [GRB048]	8.3 µM
O=C(NCc1ccccc1)Nc1ccc2[nH]c(=O)[nH]c2c1 [GRB049]	11.5 µM
O=c1[nH]c2ccc(NC(=S)NCCN3CCOCC3)cc2[nH]1 [GRB050]	56 µM
COc1ccccc1NC(=O)Nc1ccc2[nH]c(=O)[nH]c2c1 [GRB051]	> 100 µM
Cc1ccccc1NC(=O)Nc1ccc2[nH]c(S)nc2c1 [GRB058]	2 µM
O=C(Nc1cc(F)cc(F)c1)Nc1ccc2[nH]c(S)nc2c1 [GRB060]	2.4 µM
COc1cccc(NC(=O)Nc2ccc3[nH]c(S)nc3c2)c1 [GRB061]	129 µM
Cc1cc(C)cc(NC(=O)Nc2ccc3[nH]c(S)nc3c2)c1 [GRB062]	78 µM
N#Cc1ccc(NC(=O)Nc2ccc3[nH]c(S)nc3c2)cc1 [GRB063]	124 µM
O=C(Nc1ccccc1)Nc1ccc2[nH]c(S)nc2c1 [GRB064]	116 µM
O=C(Nc1ccccc1)Nc1ccc2[nH]c(SCc3ccc(F)cc3)nc2c1 [GRB065]	350 µM
O=C(NCc1ccc(F)cc1)Nc1ccc2[nH]c(SCc3ccc(F)cc3)nc2c1 [GRB066]	246 µM
Cc1cc(C)cc(NC(=O)Nc2ccc3[nH]c(SCc4ccc(F)cc4)nc3c2)c1 [GRB067]	48 µM
O=C(Nc1ccc2ccccc2c1)Nc1ccc2[nH]c(SCc3ccc(F)cc3)nc2c1 [GRB070]	128 µM
O=C(Nc1cc(F)cc(F)c1)Nc1ccc2[nH]c(SCc3ccc(F)cc3)nc2c1 [GRB071]	225 µM
CC(=O)c1cccc(NC(=O)Nc2ccc3[nH]c(SCc4ccc(F)cc4)nc3c2)c1 [GRB073]	15 µM
O=C(Cc1ccc(F)cc1)Nc1ccc2[nH]c(S)nc2c1 [GRB074]	205 µM

Compound	EC50
O=C(Nc1cccc(F)c1)Nc1ccc2[nH]c(SCc3ccc(F)cc3)nc2c1 [GRB075]	23 µM
COC(=O)c1cccc(NC(=O)c2ccc3[nH]c(S)nc3c2)c1 [GRB076]	62 µM
CSc1nc2cc(C(=O)Nc3cccc(F)c3)ccc2[nH]1 [GRB077]	502 µM
Cc1ccc(S(=O)(=O)Nc2ccc3[nH]c(S)nc3c2)cc1 [GRB078]	436 µM
O=C1Cc2cc(NC(=O)Nc3cc(F)cc(F)c3)ccc2N1 [GRB085]	1.1 µM
O=C1Cc2cc(NC(=S)Nc3ccc(Cl)c(Cl)c3)ccc2N1 [GRB086]	1.5 µM
O=C1Cc2cc(NC(=O)Nc3cccc(Br)c3)ccc2N1 [GRB087]	4.6 µM
O=C1Cc2cc(NC(=O)Nc3ccc(F)c(Cl)c3)ccc2N1 [GRB088]	8.3 µM
Cc1cccc(NC(=O)Nc2ccc3c(c2)CC(=O)N3)c1C [GRB089]	9.1 µM
Cc1cc(NC(=O)Nc2ccc3c(c2)CC(=O)N3)ccc1Cl [GRB090]	13 µM
O=C1Cc2cc(NC(=O)NC(=O)c3ccccc3)ccc2N1 [GRB091]	13.3 µM
O=C1Cc2cc(NC(=O)Nc3cc(Cl)cc(Cl)c3)ccc2N1 [GRB092]	13.8 µM
Cc1ccc(NC(=O)Nc2ccc3c(c2)CC(=O)N3)c(C)c1 [GRB093]	15.5 µM
COC(=O)c1cccc(NC(=O)Nc2ccc3c(c2)CC(=O)N3)c1 [GRB094]	23 µM
O=C1Cc2cc(NC(=S)Nc3cccc(Cl)c3)ccc2N1 [GRB095]	50.9 µM
O=C(Nc1cc(Cl)cc(Cl)c1)Nc1ccc2[nH]c(=O)oc2c1 [GRB101]	13 µM
O=C(Nc1cc(F)cc(F)c1)Nc1ccc2[nH]c(=O)oc2c1 [GRB102]	> 100 µM
Cc1ccc(NC(=O)Nc2ccc3[nH]c(=O)oc3c2)cc1 [GRB104]	3.1 µM
COc1cccc(NC(=O)Nc2ccc3[nH]c(=O)oc3c2)c1 [GRB105]	9.7 µM

Tested on: OVCAR5
Assay: EGF induced ERK activation in OVCAR5 cells
Type: cell-based
Conditions: not given

Compound	inhibition of EGF induced ERK activation
O=C1Cc2cc(NC(=O)Nc3ccc(F)cc3)ccc2N1 [GRB001]	inhibition of EGF induced ERK activation

Tested on: not listed separately
Assay: Sulforhodamine B (SRB) cytotoxicity in MDA-MB-231 cells
Type: cell-based
Conditions: human
Protocol: as §1, §2

Compound	IC50 at 72 h
O=c1[nH]c2ccc(NC(=S)Nc3ccc(Cl)c(Cl)c3)cc2o1 [GRB152]	12.1 ± 1.5 µM

Target: T1, GRB2
Assay: ITC binding to GRB2
Conditions: read-out: Kd, ITC binding isotherm
From the text: Validation of in vitro binding of GRB001 to GRB2 with ITC as an alternative technique. […] GRB001 is able to bind GRB2 in two different conformations as reflected by the energy signature (inset).
FIGS. 14A-14C show ITC binding isotherm of GRB001 binding to GRB2 as in FIG. 4 (FIG. 14A).

Compound	Kd
O=C1Cc2cc(NC(=O)Nc3cc(Cl)cc(Cl)c3)ccc2N1 [GRB092]	0.527 ± 0.367 µM

Same assay, conditions: read-out: Kd, binding to GRB2 by ITC

Compound	Kd
O=C1Cc2cc(NC(=O)Nc3ccc(F)cc3)ccc2N1 [GRB001]	37 µM

Tested on: A549 (lung adenocarcinoma) cells with G12S KRAS mutation
Assay: EGF induced MAPK activation in A549 cells
Type: cell-based
Conditions: not given

Compound	inhibition of EGF induced MAPK activation
O=C1Cc2cc(NC(=O)Nc3ccc(F)cc3)ccc2N1 [GRB001]	inhibits RTK induced Ras signaling

Target: GRB2 dimer interface (Homo sapiens, UniProt P62993)
Assay: GRB2 monomer dimer equilibrium measurement
Type: biochemical
Conditions: presence of 100 μM GRB001
Protocol: Measurements of GRB2 monomer dimer equilibrium in the absence (lower, darker line) or presence of 100 μM GRB001 (upper, lighter line).

GRB2 dimer interface, sequence (P62993 whole entry): as above

Compound	effect on GRB2 monomer dimer equilibrium
O=C1Cc2cc(NC(=O)Nc3ccc(F)cc3)ccc2N1 [GRB001]	induce a Kd shift favoring dimerization

Tested on: MDA-MB-231 TNBC
Assay: apoptosis in MDA-MB-231 tumor cells
Type: cell-based
Conditions: not given
From the text: GRB001 specifically kills triple negative breast cancer cells through caspase 3/7 mediated apoptosis (FIG. 8B).

Compound	induction of apoptosis
O=C1Cc2cc(NC(=O)Nc3ccc(F)cc3)ccc2N1 [GRB001]	induces apoptosis

Tested on: A549 lung cancer cells
Assay: apoptosis in A549 tumor cells
Type: cell-based
Conditions: not given

Compound	induction of apoptosis
O=C1Cc2cc(NC(=O)Nc3ccc(F)cc3)ccc2N1 [GRB001]	induces apoptosis
